From patent US9080214B2, “Genetic markers for efficacy of iloperidone in the treatment of psychotic symptoms” (Vanda Pharmaceuticals, Inc., priority 2007, dated 2015)

Test system: individuals diagnosed with schizophrenia
Assay: Change in PANSS-GP subscale by SNP genotype, patients on iloperidone 24 mg/day b.i.d. for 28 days (MMRM)
Assay type: in vivo, human
From the text: Earlier studies investigated an association between a polymorphism in the CNTF gene and iloperidone efficacy as well as associations between CYP2D6 and KCNQ1 genotypes and changes in QT interval following the administration of iloperidone. The present study involved the genotyping of DNA samples collected from 426 individuals diagnosed with schizophrenia in an attempt to identify additional SNPs associated with iloperidone efficacy. Each sample was genotyped at more than 500,000 SNP loci using the GeneChip® Human Mapping 500K Array Set (Affymetrix, Santa Clara, Calif.) and using assays developed in-house. Approximately half of the participants in the study were administered 24 mg/day of iloperidone, b.i.d., for 28 days. About 25% of the patients were administered ziprasidone. The remaining participants were administered a placebo. Three analyses of the PANSS-T were conducted. 1) A two-step approach where samples were randomly split into 2 groups of iloperidone-treated patients used to discover SNPs associated with changed in PANSS-T (Discovery phase) and a second group to confirm the 100 most significant SNPs (Confirmatory phase). 2) A one-step approach using the Last Observation Carried Forward (LOCF) PANSS-T data of all iloperidone-treated patients. For each SNP, the most parsimonious genetic model (e.g., homozygous for one allele v. all other genotypes [i.e., AA v. AB and BB], heterozygous v. homozygous [i.e., AB v. AA and BB]) was established with respect to iloperidone efficacy using a one-way analysis of variance (ANOVA). 3) A Mixed-effects Model Repeated Measures (MMRM) analysis was subsequently conducted using the best genetic model of each SNP in the MMRM model. MMRM analyses were also conducted with the PANSS subscales PANSS-P, PANSS-N, and PANSS-GP. The SNPs with a statistically significant association in all 3 analyses of PANSS-T, as well as the best of each analysis were considered significant findings and are listed below in Table 1. Results for each of these SNPs with the PANSS-T scales and with the three subscales PANSS-P, PANSS-N, and PANSS-GP are shown in Tables 2, 3, 4, and 5, respectively. […] In the present case of iloperidone efficacy, it is likely that different markers are more specifically associated with one or a few specific clinical symptoms, which is reflected in the improvement measured in separate subscales.

COc1cc(C(C)=O)ccc1OCCCN1CCC(c2noc3cc(F)ccc23)CC1 [iloperidone, 1-[4-[3-[4-(6-fluoro-1,2-benzisoxazol-3-yl)-1-piperidinyl]propoxy]-3-methoxyphenyl]ethanone]
mean of change in PANSS-GP (SNP_A-1819750 (CREG1) genotype A_A): −8.04 | mean of change in PANSS-GP (SNP_A-1819750 (CREG1) genotype A_B* (lowest response)): −4.58 | mean of change in PANSS-GP (SNP_A-1819750 (CREG1) genotype B_B): −6.81 | mean of change in PANSS-GP (SNP_A-1819750 (CREG1) genotype nonAB** (highest response)): −7.21 | mean of change in PANSS-GP (SNP_A-1860353 (RAP1B) genotype A_A** (highest response)): −17.20 | mean of change in PANSS-GP (SNP_A-1860353 (RAP1B) genotype A_B): −5.17 | mean of change in PANSS-GP (SNP_A-1860353 (RAP1B) genotype B_B): −4.96 | mean of change in PANSS-GP (SNP_A-1860353 (RAP1B) genotype nonAA* (lowest response)): −5.00 | mean of change in PANSS-GP (SNP_A-1934663 genotype A_A): −9.38 | mean of change in PANSS-GP (SNP_A-1934663 genotype A_B): −8.80 | mean of change in PANSS-GP (SNP_A-1934663 genotype B_B* (lowest response)): −3.07 | mean of change in PANSS-GP (SNP_A-1934663 genotype nonBB** (highest response)): −8.92 | mean of change in PANSS-GP (SNP_A-1973093 (KIAA0040) genotype A_A): −6.40 | mean of change in PANSS-GP (SNP_A-1973093 (KIAA0040) genotype A_B* (lowest response)): −1.92 | mean of change in PANSS-GP (SNP_A-1973093 (KIAA0040) genotype B_B): −7.77 | mean of change in PANSS-GP (SNP_A-1973093 (KIAA0040) genotype nonAB** (highest response)): −7.51 | mean of change in PANSS-GP (SNP_A-1975928 (SLC2A9) genotype A_A): −5.82 | mean of change in PANSS-GP (SNP_A-1975928 (SLC2A9) genotype A_B): −5.39 | mean of change in PANSS-GP (SNP_A-1975928 (SLC2A9) genotype B_B* (lowest response)): 9.62 | mean of change in PANSS-GP (SNP_A-1975928 (SLC2A9) genotype nonBB** (highest response)): −5.72 | mean of change in PANSS-GP (SNP_A-1987915 (GPR126) genotype A_A): −4.63 | mean of change in PANSS-GP (SNP_A-1987915 (GPR126) genotype A_B): −4.28 | mean of change in PANSS-GP (SNP_A-1987915 (GPR126) genotype B_B** (highest response)): −7.14 | mean of change in PANSS-GP (SNP_A-1987915 (GPR126) genotype nonBB* (lowest response)): −4.36 | mean of change in PANSS-GP (SNP_A-2007721 (LOC58486) genotype A_A): −2.52 | mean of change in PANSS-GP (SNP_A-2007721 (LOC58486) genotype A_B** (highest response)): −10.51 | mean of change in PANSS-GP (SNP_A-2007721 (LOC58486) genotype B_B): −3.91 | mean of change in PANSS-GP (SNP_A-2007721 (LOC58486) genotype nonAB* (lowest response)): −3.90 | mean of change in PANSS-GP (SNP_A-2044214 (HNT) genotype A_A): −6.83 | mean of change in PANSS-GP (SNP_A-2044214 (HNT) genotype A_B* (lowest response)): −3.34 | mean of change in PANSS-GP (SNP_A-2044214 (HNT) genotype B_B): −5.68 | mean of change in PANSS-GP (SNP_A-2044214 (HNT) genotype nonAB** (highest response)): −6.43 | mean of change in PANSS-GP (SNP_A-2048427 (NPAS3) genotype A_A): −9.50 | mean of change in PANSS-GP (SNP_A-2048427 (NPAS3) genotype A_B): −9.79 | mean of change in PANSS-GP (SNP_A-2048427 (NPAS3) genotype B_B* (lowest response)): −3.44 | mean of change in PANSS-GP (SNP_A-2048427 (NPAS3) genotype nonBB** (highest response)): −9.75 | mean of change in PANSS-GP (SNP_A-2070454 (NKX2-5) genotype A_A): −3.91 | mean of change in PANSS-GP (SNP_A-2070454 (NKX2-5) genotype A_B): −4.34 | mean of change in PANSS-GP (SNP_A-2070454 (NKX2-5) genotype B_B** (highest response)): −8.12 | mean of change in PANSS-GP (SNP_A-2070454 (NKX2-5) genotype nonBB* (lowest response)): −4.20 | mean of change in PANSS-GP (SNP_A-2076797 (NUDT9P1) genotype A_A): −2.80 | mean of change in PANSS-GP (SNP_A-2076797 (NUDT9P1) genotype A_B** (highest response)): −8.23 | mean of change in PANSS-GP (SNP_A-2076797 (NUDT9P1) genotype B_B): −2.42 | mean of change in PANSS-GP (SNP_A-2076797 (NUDT9P1) genotype nonAB* (lowest response)): −2.62 | mean of change in PANSS-GP (SNP_A-2103099 (HTR1A) genotype A_A): −7.79 | mean of change in PANSS-GP (SNP_A-2103099 (HTR1A) genotype A_B* (lowest response)): −3.42 | mean of change in PANSS-GP (SNP_A-2103099 (HTR1A) genotype B_B): −6.80 | mean of change in PANSS-GP (SNP_A-2103099 (HTR1A) genotype nonAB** (highest response)): −7.16 | mean of change in PANSS-GP (SNP_A-2120958 genotype A_A): −5.90 | mean of change in PANSS-GP (SNP_A-2120958 genotype A_B): −6.13 | mean of change in PANSS-GP (SNP_A-2120958 genotype B_B* (lowest response)): 1.80 | mean of change in PANSS-GP (SNP_A-2120958 genotype nonBB** (highest response)): −5.99 | mean of change in PANSS-GP (SNP_A-2170121 (C6) genotype A_A): −3.40 | mean of change in PANSS-GP (SNP_A-2170121 (C6) genotype A_B** (highest response)): −10.21 | mean of change in PANSS-GP (SNP_A-2170121 (C6) genotype B_B): −5.25 | mean of change in PANSS-GP (SNP_A-2170121 (C6) genotype nonAB* (lowest response)): −3.57 | mean of change in PANSS-GP (SNP_A-2274533 (LZTS1) genotype A_A** (highest response)): −7.04 | mean of change in PANSS-GP (SNP_A-2274533 (LZTS1) genotype A_B): −2.16 | mean of change in PANSS-GP (SNP_A-2274533 (LZTS1) genotype B_B): −2.33 | mean of change in PANSS-GP (SNP_A-2274533 (LZTS1) genotype nonAA* (lowest response)): −2.20 | mean of change in PANSS-GP (SNP_A-2283283 (XKR4) genotype A_A* (lowest response)): −0.58 | mean of change in PANSS-GP (SNP_A-2283283 (XKR4) genotype A_B): −6.49 | mean of change in PANSS-GP (SNP_A-2283283 (XKR4) genotype B_B): −6.90 | mean of change in PANSS-GP (SNP_A-2283283 (XKR4) genotype nonAA** (highest response)): −6.66 | mean of change in PANSS-GP (SNP_A-2284243 (GRIA4) genotype A_A): −6.57 | mean of change in PANSS-GP (SNP_A-2284243 (GRIA4) genotype A_B): −6.77 | mean of change in PANSS-GP (SNP_A-2284243 (GRIA4) genotype B_B* (lowest response)): −0.77 | mean of change in PANSS-GP (SNP_A-2284243 (GRIA4) genotype nonBB** (highest response)): −6.69 | mean of change in PANSS-GP (SNP_A-4204396 (CDH13) genotype A_A): −5.87 | mean of change in PANSS-GP (SNP_A-4204396 (CDH13) genotype A_B): −5.99 | mean of change in PANSS-GP (SNP_A-4204396 (CDH13) genotype B_B* (lowest response)): 1.39 | mean of change in PANSS-GP (SNP_A-4204396 (CDH13) genotype nonBB** (highest response)): −5.91 | mean of change in PANSS-GP (SNP_A-4212785 (PPP1R3B) genotype A_A* (lowest response)): 15.61 | mean of change in PANSS-GP (SNP_A-4212785 (PPP1R3B) genotype A_B): −5.99 | mean of change in PANSS-GP (SNP_A-4212785 (PPP1R3B) genotype B_B): −5.84 | mean of change in PANSS-GP (SNP_A-4212785 (PPP1R3B) genotype nonAA** (highest response)): −5.89 | mean of change in PANSS-GP (SNP_A-4230979 (ASB3) genotype A_A): −1.74 | mean of change in PANSS-GP (SNP_A-4230979 (ASB3) genotype A_B): −3.42 | mean of change in PANSS-GP (SNP_A-4230979 (ASB3) genotype B_B** (highest response)): −8.85 | mean of change in PANSS-GP (SNP_A-4230979 (ASB3) genotype nonBB* (lowest response)): −3.07 | mean of change in PANSS-GP (SNP_A-4256833 (MLCK) genotype A_A): −7.14 | mean of change in PANSS-GP (SNP_A-4256833 (MLCK) genotype A_B* (lowest response)): −2.62 | mean of change in PANSS-GP (SNP_A-4256833 (MLCK) genotype B_B): −6.45 | mean of change in PANSS-GP (SNP_A-4256833 (MLCK) genotype nonAB** (highest response)): −6.49 | mean of change in PANSS-GP (SNP_A-4258279 (RRM1) genotype A_A): −4.64 | mean of change in PANSS-GP (SNP_A-4258279 (RRM1) genotype A_B* (lowest response)): −0.66 | mean of change in PANSS-GP (SNP_A-4258279 (RRM1) genotype B_B): −6.29 | mean of change in PANSS-GP (SNP_A-4258279 (RRM1) genotype nonAB** (highest response)): −6.27
